Experimental data reported in patent US20240282401A1, “METHODS FOR ENZYME ENGINEERING” (The University of Manchester, priority 2021, published 2024).

Molecular target: T1, HDNO D6 (Paenarthrobacter nicotinovorans, UniProt P08159, A237T/A42S/E349L/E351D/N413H/V430A)
T1 construct: This full-length gene design was then used to introduce genetic diversity to create a library; His tag (N); made in house; host or cells: E. coli BL21 (DE3)
Assay: Biotransformation turnover frequencies of amine substrates (GC-FID)
Type: biochemical, Arthrobacter nicotinovorans
Settings: for TOF: HDNO D6 0.05 mg mL^−1, 10 mM substrate, 30° C., pH 8 100 mM buffer, conversions after 10 min; for Fold increase vs D2: TOF of HDNO D6 over HDNO D2 (0.2 mg ml^−1)
Protocol: Chiral normal phase HPLC was performed on an Agilent HPLC system (G1379A degasser, G1312A binary pump, a G1367A well plate autosampler unit, a G1316A temperature-controlled column compartment and a G1315C diode array detector) (Agilent Technologies Inc., Santa Clara, CA) equipped with a CHIRALCEL OD-H (250 mm length, 4.6 mm diameter, 5 μm particle size) analytical column (Daicel Corp., Osaka, Japan). The typical injection volume was 10 μL and chromatograms were monitored at 265 nm. Gas chromatographic (GC) analysis was performed on an Agilent 6850 GC (Agilent Technologies Inc., Santa Clara, CA) with a flame ionization detector and autosampler equipped with a HP-1 column of length 30 m, 0.32 mm inner diameter and 0.25 μm film thickness (Agilent Technologies Inc., Santa Clara, CA).
A typical 500 μL reaction mixture in a 2 mL tube contained 10 mM amine, 0.05 to 1 mg mL^−1 of purified HDNO variant in pH 8 100 mM NaPi buffer. Reactions were incubated at 30° C. with 250 r.p.m shaking for different reaction times, after which they were quenched by the addition of 50 μL of 10 M NaOH and extracted twice with 500 μL tert-butyl methyl ether (HPLC grade, Merck Life Science UK Limited, Gillingham). The organic fractions were combined and dried over anhydrous MgSO4 and analysed by GC-FID (conversions) or HPLC (enantiomeric ratios) on a chiral stationary phase (see Chromatography section for details). Turnover frequencies (TOF, min^−1) were calculated as the moles of product formed/moles of enzyme min^−1 based on conversions obtained by GC-FID analysis (see Chromatography method). The same response factor was considered for both substrate and product.

T1 sequence (P08159 other isoform, or with tags, fused parts or gaps A42S/A237T/E349L/E351D/N413H/V430A/C432S): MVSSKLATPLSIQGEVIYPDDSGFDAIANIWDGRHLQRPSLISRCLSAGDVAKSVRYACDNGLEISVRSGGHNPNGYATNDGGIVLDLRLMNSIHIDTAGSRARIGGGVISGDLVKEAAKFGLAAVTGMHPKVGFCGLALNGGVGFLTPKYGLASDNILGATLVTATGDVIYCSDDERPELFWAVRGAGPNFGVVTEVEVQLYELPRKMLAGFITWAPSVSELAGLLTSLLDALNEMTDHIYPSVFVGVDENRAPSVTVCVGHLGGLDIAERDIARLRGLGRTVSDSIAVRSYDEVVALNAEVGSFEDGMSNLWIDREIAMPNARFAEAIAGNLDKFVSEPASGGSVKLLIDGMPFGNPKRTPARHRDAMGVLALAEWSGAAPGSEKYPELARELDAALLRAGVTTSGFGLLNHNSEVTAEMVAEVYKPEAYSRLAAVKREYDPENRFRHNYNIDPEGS

Row | Structure (SMILES) | TOF | Fold increase vs D2
1 | c1ccc([C@H]2CCCN2)cc1 [Mutant 1a, (R)-2-phenylpyrrolidine] | 79.8 min⁻¹ | 5.8 fold
2 | CN(C)c1ccc(C2CCCN2)cc1 (centres unmarked) [Mutant 1b, 2-(4-dimethylaminophenyl)-pyrrolidine] | 181.2 min⁻¹ | 10.2 fold
3 | c1ccc(CCC2CCCN2)cc1 (centres unmarked) [Mutant 1c] | 28.8 min⁻¹ | 5.9 fold
4 | Clc1cccc(C2CCCN2)c1 (centres unmarked) [Mutant 1d] | 135.6 min⁻¹ | –
5 | c1ccc(CCC2CCCCN2)cc1 (centres unmarked) [Mutant 1f] | 8.4 min⁻¹ | –
6 | CC(N)c1ccccc1 (centres unmarked) [Mutant 1g] | 0.66 min⁻¹ | –
7 | CCCCC[C@@H](C)N [Mutant 1h] | 0.42 min⁻¹ | –
8 | C1CC2CNCC2C1 (centres unmarked) [Mutant 1i] | no measurable activity | –
